# Test results taken from patent publication US9833497B2, “Human originated EGF domain proteins and use of the same” (CHENGDU SOURCEBIO LIMITED-LIABILITY COMPANY, priority 2013, dated 2017).
# Assays:
# Type in all cases: cell-based
# E. coli DH5α = assay: Antibacterial activity: MIC and growth curve against E. coli DH5α in 96-well plate; conditions: minimal inhibitory concentration against E. coli DH5α; 96-well plate, 5×10^5 CFU/mL, 37° C., judged after 8 h
# In short: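 MIC taken as lowest protein level with no bacterial growth, tracked by A600 every 30 min during 37 °C, 175 rpm culture. Two-fold protein series 50-12.5 μg/mL final, triplicate wells, against 5×10^5 CFU/mL of LB-washed mid-log cells.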
# Proteus mirabilis = assay: MIC against Gram-negative bacteria: Proteus mirabilis; conditions: 5×10^5 CFU/mL
# In short: (§1)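 Bacteria grown in LB at 37° C to McFarland 0.5, resuspended and seeded at 5×10^5 CFU/mL in 96-well plates. Purified human EGF-domain proteins two-fold serially diluted, triplicate wells; cultured at 37° C, shaking 175 rpm. MIC = lowest protein concentration with no growth.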
# Pseudomonas aeruginosa = assay: MIC against Gram-negative bacteria: Pseudomonas aeruginosa; conditions: 5×10^5 CFU/mL
# In short: as §1
# Proteus vulgaris = assay: MIC against Gram-negative bacteria: Proteus vulgaris; conditions: 5×10^5 CFU/mL
# In short: as §1
# Moraxella catarrhalis = assay: MIC against Gram-negative bacteria: Moraxella catarrhalis; conditions: 5×10^5 CFU/mL
# In short: as §1
# Klebsiella pneumonia = assay: MIC against Gram-negative bacteria: Klebsiella pneumonia; conditions: 5×10^5 CFU/mL
# In short: as §1
# Aeromonas hydrophila = assay: MIC against Gram-negative bacteria: Aeromonas hydrophila; conditions: 5×10^5 CFU/mL
# In short: as §1
# Enterobacter cloacae = assay: MIC against Gram-negative bacteria: Enterobacter cloacae; conditions: 5×10^5 CFU/mL
# In short: as §1
# Citrobacter diversus = assay: MIC against Gram-negative bacteria: Citrobacter diversus; conditions: 5×10^5 CFU/mL
# In short: as §1
# Serratia marcescens = assay: MIC against Gram-negative bacteria: Serratia marcescens; conditions: 5×10^5 CFU/mL
# In short: as §1
# E. coli BL21 = assay: MIC against Gram-negative bacteria: E. coli BL21; conditions: 5×10^5 CFU/mL
# In short: as §1
# [1] = Proteus mirabilis, 10 h cultivation at 37° C.
# [2] = Pseudomonas aeruginosa, 10 h cultivation at 37° C.
# [3] = Proteus vulgaris, 10 h cultivation at 37° C.
# [4] = Moraxella catarrhalis, 10 h cultivation at 37° C.
# [5] = Klebsiella pneumonia, 10 h cultivation at 37° C.
# [6] = Aeromonas hydrophila, 10 h cultivation at 37° C.
# [7] = Enterobacter cloacae, 10 h cultivation at 37° C.
# [8] = Citrobacter diversus, 10 h cultivation at 37° C.
# [9] = Serratia marcescens, 10 h cultivation at 37° C.
# [10] = E. coli BL21, 10 h cultivation at 37° C.
# [11] = Proteus mirabilis, 96-well plate, 37° C., 10 h
# [12] = Pseudomonas aeruginosa, 96-well plate, 37° C., 10 h
# [13] = Proteus vulgaris, 96-well plate, 37° C., 10 h
# [14] = Moraxella catarrhalis, 96-well plate, 37° C., 10 h
# [15] = Klebsiella pneumonia, 96-well plate, 37° C., 10 h
# [16] = Aeromonas hydrophila, 96-well plate, 37° C., 10 h
# [17] = Enterobacter cloacae, 96-well plate, 37° C., 10 h
# [18] = Citrobacter diversus, 96-well plate, 37° C., 10 h
# [19] = Serratia marcescens, 96-well plate, 37° C., 10 h
# [20] = E. coli BL21, 96-well plate, 37° C., 10 h
Substance,MIC (E. coli DH5α),MIC against P. mirabilis (Proteus mirabilis; [1]),MIC against P. aeruginosa (Pseudomonas aeruginosa; [2]),MIC against P. vulgaris (Proteus vulgaris; [3]),MIC against M. catarrhalis (Moraxella catarrhalis; [4]),MIC against K. pneumonia (Klebsiella pneumonia; [5]),MIC against A. hydrophila (Aeromonas hydrophila; [6]),MIC against E. cloacae (Enterobacter cloacae; [7]),MIC against C. diversus (Citrobacter diversus; [8]),MIC against S. marcescens (Serratia marcescens; [9]),MIC against E. coli BL21 (E. coli BL21; [10]),MIC (μg/mL) P. mirabilis (Proteus mirabilis; [11]),MIC (μg/mL) P. aeruginosa (Pseudomonas aeruginosa; [12]),MIC (μg/mL) P. vulgaris (Proteus vulgaris; [13]),MIC (μg/mL) M. catarrhalis (Moraxella catarrhalis; [14]),MIC (μg/mL) K. pneumonia (Klebsiella pneumonia; [15]),MIC (μg/mL) A. hydrophila (Aeromonas hydrophila; [16]),MIC (μg/mL) E. cloacae (Enterobacter cloacae; [17]),MIC (μg/mL) C. diversus (Citrobacter diversus; [18]),MIC (μg/mL) S. marcescens (Serratia marcescens; [19]),also measured
PRT1436 (AERNCRNPELNPCSVNAQCIEERQGDVTCVCGVGWAGDGYICG; listed as Homo sapiens),12.5 mg/L,12.5 mg/L,12.5 mg/L,25 mg/L,25 mg/L,50 mg/L,50 mg/L,12.5 mg/L,25 mg/L,12.5 mg/L,12.5 mg/L,–,–,–,–,–,–,–,–,–,–
PRT1309 (EVDPCAHGHGGCSPHANCTKVAPGQRTCTCQDGYMGDGELCQ; listed as Homo sapiens),12.5 mg/L,–,–,–,–,–,–,–,–,–,–,–,–,–,–,–,–,–,–,–,MIC against P. mirabilis (Proteus mirabilis; [11]): 25 mg/L; MIC against P. aeruginosa (Pseudomonas aeruginosa; [12]): 12.5 mg/L; MIC against P. vulgaris (Proteus vulgaris; [13]): 50 mg/L; MIC against M. catarrhalis (Moraxella catarrhalis; [14]): 12.5 mg/L; MIC against K. pneumonia (Klebsiella pneumonia; [15]): 50 mg/L; MIC against A. hydrophila (Aeromonas hydrophila; [16]): 50 mg/L; MIC against E. cloacae (Enterobacter cloacae; [17]): 12.5 mg/L; MIC against C. diversus (Citrobacter diversus; [18]): 25 mg/L; MIC against S. marcescens (Serratia marcescens; [19]): 25 mg/L; MIC against E. coli BL21 (E. coli BL21; [20]): 50 mg/L
PRT71 (VDACHLNPCENMGACVRSPGSPQGYVCECGPSHYGPYCE; listed as Homo sapiens),50 mg/L,–,–,–,–,–,–,–,–,–,–,12.5 µg/mL,12.5 µg/mL,12.5 µg/mL,50 µg/mL,25 µg/mL,25 µg/mL,50 µg/mL,12.5 µg/mL,12.5 µg/mL,MIC (μg/mL) E. coli BL21 (E. coli BL21; [20]): 25 µg/mL
PRT838 (GLQECSAYCGSHGTCASPLGPCRCEPGFLGRACD; listed as Homo sapiens),50 mg/L,–,–,–,–,–,–,–,–,–,–,–,–,–,–,–,–,–,–,–,"MIC (μg/mL) P. mirabilis (Proteus mirabilis; P. mirabilis, 10 h cultivation at 37° C.): 25 µg/mL; MIC (μg/mL) P. aeruginosa (Pseudomonas aeruginosa; P. aeruginosa, 10 h cultivation at 37° C.): 50 µg/mL; MIC (μg/mL) P. vulgaris (Proteus vulgaris; P. vulgaris, 10 h cultivation at 37° C.): 12.5 µg/mL; MIC (μg/mL) M. catarrhalis (Moraxella catarrhalis; M. catarrhalis, 10 h cultivation at 37° C.): 12.5 µg/mL; MIC (μg/mL) K. pneumonia (Klebsiella pneumonia; K. pneumonia, 10 h cultivation at 37° C.): 12.5 µg/mL; MIC (μg/mL) A. hydrophila (Aeromonas hydrophila; A. hydrophila, 10 h cultivation at 37° C.): 50 µg/mL; MIC (μg/mL) E. cloacae (Enterobacter cloacae; E. cloacae, 10 h cultivation at 37° C.): 25 µg/mL; MIC (μg/mL) C. diversus (Citrobacter diversus; C. diversus, 10 h cultivation at 37° C.): 25 µg/mL; MIC (μg/mL) S. marcescens (Serratia marcescens; S. marcescens, 10 h cultivation at 37° C.): 25 µg/mL; MIC (μg/mL) E. coli BL21 (E. coli BL21; [10]): 12.5 µg/mL"
PRT1376 (ATRMCPADCRGRGRCVQGVCLCHVGYGGEDCG; listed as Homo sapiens),50 mg/L,50 mg/L,50 mg/L,12.5 mg/L,12.5 mg/L,12.5 mg/L,12.5 mg/L,50 mg/L,50 mg/L,25 mg/L,12.5 mg/L,–,–,–,–,–,–,–,–,–,–
PRT711 (GDNMCRVNNGGCSTLCLAIPGGRVCACADNQLLDENGTTCT; listed as Homo sapiens),25 mg/L,–,–,–,–,–,–,–,–,–,–,–,–,–,–,–,–,–,–,–,"MIC P. mirabilis (Proteus mirabilis; 96-well plate, 37° C., 10 h): 12.5 mg/L; MIC P. aeruginosa (Pseudomonas aeruginosa; 96-well plate, 37° C., 10 h): 50 mg/L; MIC P. vulgaris (Proteus vulgaris; 96-well plate, 37° C., 10 h): 25 mg/L; MIC M. catarrhalis (Moraxella catarrhalis; 96-well plate, 37° C., 10 h): 50 mg/L; MIC K. pneumonia (Klebsiella pneumonia; 96-well plate, 37° C., 10 h): 12.5 mg/L; MIC A. hydrophila (Aeromonas hydrophila; 96-well plate, 37° C., 10 h): 50 mg/L; MIC E. cloacae (Enterobacter cloacae; 96-well plate, 37° C., 10 h): 25 mg/L; MIC C. diversus (Citrobacter diversus; 96-well plate, 37° C., 10 h): 12.5 mg/L; MIC S. marcescens (Serratia marcescens; 96-well plate, 37° C., 10 h): 50 mg/L; MIC E. coli BL21 (E. coli BL21; 96-well plate, 37° C., 10 h): 12.5 mg/L"
PRT502 (CECHGHAAECNVHGVCIACAHNTTGVHCEQCLPGFYGEPSRGTPGDCQP; listed as Homo sapiens),25 mg/L,–,–,–,–,–,–,–,–,–,–,–,–,–,–,–,–,–,–,–,"MIC against P. mirabilis (Proteus mirabilis; 96-well plate, 37° C., 10 h): 12.5 mg/L; MIC against P. aeruginosa (Pseudomonas aeruginosa; 96-well plate, 37° C., 10 h): 12.5 mg/L; MIC against P. vulgaris (Proteus vulgaris; 96-well plate, 37° C., 10 h): 50 mg/L; MIC against M. catarrhalis (Moraxella catarrhalis; 96-well plate, 37° C., 10 h): 12.5 mg/L; MIC against K. pneumonia (Klebsiella pneumonia; 96-well plate, 37° C., 10 h): 12.5 mg/L; MIC against A. hydrophila (Aeromonas hydrophila; 96-well plate, 37° C., 10 h): 12.5 mg/L; MIC against E. cloacae (Enterobacter cloacae; 96-well plate, 37° C., 10 h): 12.5 mg/L; MIC against C. diversus (Citrobacter diversus; 96-well plate, 37° C., 10 h): 12.5 mg/L; MIC against S. marcescens (Serratia marcescens; 96-well plate, 37° C., 10 h): 25 mg/L; MIC against E. coli BL21 (E. coli BL21; 96-well plate, 37° C., 10 h): 12.5 mg/L"
PRT1430 (DINECAHADPCFPGSSCINTMPGFHCEACPRGYKGTQVS; listed as Homo sapiens),25 mg/L,25 mg/L,25 mg/L,12.5 mg/L,12.5 mg/L,12.5 mg/L,12.5 mg/L,25 mg/L,25 mg/L,25 mg/L,12.5 mg/L,–,–,–,–,–,–,–,–,–,–
PRT31 (CDCYPVGSTSRSCAPHSGQCPCRPGALGRQCNSCDSPFAEVTASGC; listed as Homo sapiens),25 mg/L,–,–,–,–,–,–,–,–,–,–,25 µg/mL,12.5 µg/mL,50 µg/mL,12.5 µg/mL,25 µg/mL,25 µg/mL,12.5 µg/mL,12.5 µg/mL,25 µg/mL,MIC (μg/mL) E. coli BL21 (E. coli BL21; [20]): 12.5 µg/mL
PRT93 (PLLHCAPGFCFPGVACIQTESGARCGPCPAGFTGNGSHCT; listed as Homo sapiens),50 mg/L,–,–,–,–,–,–,–,–,–,–,12.5 µg/mL,50 µg/mL,12.5 µg/mL,25 µg/mL,12.5 µg/mL,25 µg/mL,12.5 µg/mL,100 µg/mL,12.5 µg/mL,MIC (μg/mL) E. coli BL21 (E. coli BL21; [20]): 12.5 µg/mL
